Measured values as given in BindingDB's records for doi:10.1111/j.1747-0285.2008.00752.x (Universitat Aut&Ogravenoma De Barcelona, 2009).

Experiments:
Assay in all cases: Inhibition Assay
Carboxypeptidase B2 = target: T1, Carboxypeptidase B2 (Homo sapiens, UniProt Q96IY4)
T1 sequence (Q96IY4 whole entry): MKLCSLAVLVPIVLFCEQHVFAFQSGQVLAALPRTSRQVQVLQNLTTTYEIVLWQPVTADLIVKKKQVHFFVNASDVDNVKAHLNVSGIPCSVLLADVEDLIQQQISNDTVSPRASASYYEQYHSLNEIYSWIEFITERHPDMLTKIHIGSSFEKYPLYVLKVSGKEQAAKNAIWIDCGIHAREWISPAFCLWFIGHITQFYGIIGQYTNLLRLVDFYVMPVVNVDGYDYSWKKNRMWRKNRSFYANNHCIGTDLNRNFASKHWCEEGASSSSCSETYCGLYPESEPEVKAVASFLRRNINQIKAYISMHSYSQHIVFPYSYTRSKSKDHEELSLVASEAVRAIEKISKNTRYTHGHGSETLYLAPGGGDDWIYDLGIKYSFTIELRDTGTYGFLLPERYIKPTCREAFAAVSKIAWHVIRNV
Source text: (§1) The aromatic compounds screening were characterized by molecular docking as well as by in vitro inhibition assay against carboxypeptidase(CPs) of different specifications and natural origin.

Carboxypeptidase B = target: T2, Carboxypeptidase B (Helicoverpa zea, UniProt Q3T905)
T2 sequence (Q3T905 whole entry): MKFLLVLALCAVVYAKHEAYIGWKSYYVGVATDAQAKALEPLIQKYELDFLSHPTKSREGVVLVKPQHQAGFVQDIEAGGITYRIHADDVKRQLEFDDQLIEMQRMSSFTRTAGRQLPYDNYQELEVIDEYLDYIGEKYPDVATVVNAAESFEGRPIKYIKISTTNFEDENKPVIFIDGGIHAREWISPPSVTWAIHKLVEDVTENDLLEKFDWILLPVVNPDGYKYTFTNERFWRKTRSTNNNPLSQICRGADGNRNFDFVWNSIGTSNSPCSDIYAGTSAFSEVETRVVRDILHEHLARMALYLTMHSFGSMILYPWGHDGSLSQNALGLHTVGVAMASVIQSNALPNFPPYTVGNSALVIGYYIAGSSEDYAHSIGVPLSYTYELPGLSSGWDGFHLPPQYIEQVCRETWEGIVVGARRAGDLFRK
Source text: as §1

Carboxypeptidase A1 = target: T3, Carboxypeptidase A1 (Bos taurus, UniProt P00730)
T3 sequence (P00730 whole entry): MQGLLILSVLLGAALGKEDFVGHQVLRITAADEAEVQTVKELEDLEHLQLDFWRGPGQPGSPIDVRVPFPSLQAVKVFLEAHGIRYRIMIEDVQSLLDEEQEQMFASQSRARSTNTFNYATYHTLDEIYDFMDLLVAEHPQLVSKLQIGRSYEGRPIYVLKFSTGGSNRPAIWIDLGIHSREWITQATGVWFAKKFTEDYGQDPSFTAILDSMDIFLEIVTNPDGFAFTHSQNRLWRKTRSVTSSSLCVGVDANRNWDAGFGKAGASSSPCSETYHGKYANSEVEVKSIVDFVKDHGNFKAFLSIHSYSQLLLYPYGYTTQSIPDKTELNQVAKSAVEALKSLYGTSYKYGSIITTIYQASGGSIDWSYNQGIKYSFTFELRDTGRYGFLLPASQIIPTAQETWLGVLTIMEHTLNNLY
Source text: as §1

Compound | Ki (Carboxypeptidase B2) | Ki (Carboxypeptidase B) | Ki (Carboxypeptidase A1)
COc1ccc2[nH]c(=O)c(CN(CCO)C(=S)Nc3ccc(C)cc3)cc2c1 [1-(2-hydroxyethyl)-1-((6-methoxy-2-oxo-1,2-dihydroquinolin-3-yl)methyl)3-yl)methyl)-3-p-tolythiourea, 7] | 22.5 µM | 20.5 µM | 420 µM
O=C(Cn1nnc(-c2cccs2)n1)N1CCc2ccccc2C1 [1-(3,4-dihydroisoquinolin-2(1H)-yl)-2-(5thiophen-2-yl)-2H-tetrazol-2-yl)ethanone, 3] | 32 µM | 62 µM | 520 µM
Cc1ccc(C(=O)CSc2nnc(COc3ccc4ccccc4c3)o2)cc1 [2-(5-(naphthalen-2-yloxy)methyl)-1,3,4-oxadiazol-2-ylthio)-1-p-tolylethanone, 5] | 1.9 µM | 1.6 µM | 58 µM
Cc1ccc2[nH]c(=O)c(CN(Cc3cccs3)C(=S)NC(C)c3ccccc3)cc2c1 (stereo not given) [1-((6-methyl-2-oxo-1,2-dihydroquinolin-3-yl)methyl)-3-(1-phenylethyl)-1-(thiophen-2-ylmethyl)thiourea, 10] | 1.6 µM | 0.58 µM | 3.8 µM
Cc1ccc(C(=O)CSc2nnc(COc3cccc4cccnc34)o2)cc1 [1-(4-methylphenyl)-2-[[5-(8-quinolinyloxymethyl)-1,3,4-oxadiazol-2-yl]thio]ethanone] | 50 µM | 14 µM | 32 µM

More lines, now with the values ahead:

Ki (Carboxypeptidase B2) | Ki (Carboxypeptidase B) | Ki (Carboxypeptidase A1) | Compound
145 µM | 129 µM | 290 µM | Nc1nccc2ccc(CC(N)C(=O)O)cc12 (stereo not given) [2-amino-3-(1-aminoisoquinolin-7-yl)propanoic acid, 2]
14.3 µM | 82 µM | 37 µM | O=c1[nH]c(CN(Cc2ccccc2)S(=O)(=O)c2ccc(F)cc2)nc2ccccc12 [N-benzyl-4-fluoro-N-((4-hydroxyquinazolin-2-yl)methylbenzensulfonamide, 9]
220 µM | 100 µM | 280 µM | Nc1nccc2cc(CC(N)C(=O)O)ccc12 (stereo not given) [2-Amino-3-(1-aminoisoquinolin-6-yl)propanoic acid, 1]
13.3 µM | 1.2 µM | 15 µM | COC(=O)c1ccccc1NC(=S)N(Cc1ccco1)Cc1cc2cccc(C)c2[nH]c1=O [methyl 2-(3-furan-2-ylmethyl)-3-((8-methyl-2-oxo-1,2,-dihydroquinolin-3-yl)methyl)thioureido)benzoate, 11]
11.8 µM | 35 µM | 10.4 µM | O=C(O)CCSc1nnc(COc2cccc3ccccc23)n1-c1ccccc1 [3-(5-((naphthalen-1-yloxy)methyl)-4-pheny-4H-1,2,4-triazol-3-ythio)propanoic acid, 8]
